Experimental data from patent publication US4315020A, “Oxazoline (trifluoroethyl) amine” (Science Union et Cie, priority 1976, dated 1982).
Blank lines part the entries; values can stand above or below the compound they belong to.

Assay: solubility
Assay type: physicochemical
Conditions: for solubility in the stoichiometric amount of N/10 hydrochloric acid: N/10 hydrochloric acid solution

solubility in the stoichiometric amount of dilute hydrochloric acid (stoichiometric amount, dilute hydrochloric acid): soluble
SMILES: FC(F)(F)C(NC1=NCCO1)c1ccco1 (racemic) [X, dl 2-[α-trifluoromethyl (furyl-2)methylamino] oxazoline]

solubility in a N/10 aqueous solution of hydrochloric acid (N/10 aqueous hydrochloric acid): soluble
SMILES: Cn1cccc1C(NC1=NCCO1)C(F)(F)F (racemic) [XIV, dl α-trifluoromethyl 2-[(N-methylpyrrolyl-2)methylamino] oxazoline]

solubility in the stoichiometric amount of N/10 hydrochloric acid (stoichiometric amount): soluble
SMILES: FC(F)(F)C(NC1=NCCO1)c1ccc[nH]1 (racemic) [XVI, dl α-trifluoromethyl 2-[(pyrrolyl-2)methylamino] oxazoline]

The next lines start with the compound.

SMILES: FC(F)(F)C(NC1=NCCN1)c1ccccc1 (racemic) [I, 2(α-phenyl trifluoroethylamino) imidazoline]
solubility in the stoichiometric amount of N/10 hydrochloric acid (stoichiometric amount): soluble

SMILES: Cc1ccccc1C(NC1=NCCO1)C(F)(F)F (racemic) [XIX, dl 2-[(2-methylphenyl) ααα-trifluoroethyl]amino oxazoline]
solubility in the aqueous solution of mineral acids (aqueous mineral acids): soluble
solubility in the usual organic solvents (usual organic solvents): soluble

SMILES: CN(C1=NCCO1)C(c1ccccc1)C(F)(F)F (racemic) [XV, dl α-trifluoromethyl 2-(N-methylbenzylamino) oxazoline]
solubility in an aqueous solution of hydrochloric acid (aqueous hydrochloric acid): soluble
solubility in the most of the organic solvents (most organic solvents): soluble

SMILES: FC(F)(F)C(NC1=NCCO1)c1ccccc1 (single isomer, unassigned) [XII, levorotatory 2-[α-trifluoromethylbenzylamino] oxazoline]
solubility in dilute hydrochloric acid (dilute hydrochloric acid): solbuble
